System: 695427-040-R-J1-PDC complex spheroid viability
Test: Anticancer human tumor 695427-040-R-J1-PDC patient-derived colon adenocarcinoma cell line growth inhibition [POLQ]
Details: for IC50: curve of first compound; for viability, T/C: stronger effect = lower value; active = viability on the fitted dose curve at most 10% of control; inactive = the rest
Summary of the method: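 Complex spheroid viability model combining PDC tumour cells with endothelial (HUVEC) and MSC stromal cells. Novobiocin, ART-558 or RP6685 were tested singly and in combination with standard and investigational anticancer drugs. Each was titrated in half-log steps from near clinical Cmax, or from 10 microM where Cmax was unknown.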

[1] = second compound 0.0316 µM, first compound 0.0316 µM
[2] = second compound 0.0316 µM, first compound 0.1 µM
[3] = second compound 0.0316 µM, first compound 0.316 µM
[4] = second compound 0.0316 µM, first compound 1 µM
[5] = second compound 0.0316 µM, first compound 3.16 µM
[6] = second compound 0.0316 µM, first compound 10 µM
[7] = second compound 0.1 µM, first compound 0.0316 µM
[8] = second compound 0.1 µM, first compound 0.1 µM
[9] = second compound 0.1 µM, first compound 0.316 µM
[10] = second compound 0.1 µM, first compound 1 µM
[11] = second compound 0.1 µM, first compound 3.16 µM
[12] = second compound 0.1 µM, first compound 10 µM
[13] = second compound 0.316 µM, first compound 0.0316 µM
[14] = second compound 0.316 µM, first compound 0.1 µM
[15] = second compound 0.316 µM, first compound 0.316 µM
[16] = second compound 0.316 µM, first compound 1 µM
[17] = second compound 0.316 µM, first compound 3.16 µM
[18] = second compound 0.316 µM, first compound 10 µM
[19] = second compound 1 µM, first compound 0.0316 µM
[20] = second compound 1 µM, first compound 0.1 µM
[21] = second compound 1 µM, first compound 0.316 µM
[22] = second compound 1 µM, first compound 1 µM
[23] = second compound 1 µM, first compound 3.16 µM
[24] = second compound 1 µM, first compound 10 µM
[25] = second compound 3.16 µM, first compound 0.0316 µM
[26] = second compound 3.16 µM, first compound 0.1 µM
[27] = second compound 3.16 µM, first compound 0.316 µM
[28] = second compound 3.16 µM, first compound 1 µM
[29] = second compound 3.16 µM, first compound 3.16 µM
[30] = second compound 3.16 µM, first compound 10 µM
[31] = second compound 10 µM, first compound 0.0316 µM
[32] = second compound 10 µM, first compound 0.1 µM
[33] = second compound 10 µM, first compound 0.316 µM
[34] = second compound 10 µM, first compound 1 µM
[35] = second compound 10 µM, first compound 3.16 µM
[36] = second compound 10 µM, first compound 10 µM
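Note: spheroids exposed to compounds for seven days.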
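Throughout, for viability, T/C: 100% = DMSO vehicle control viability.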

C#Cc1c(F)ccc2cc(O)cc(-c3ncc4c(N5CC6CCC(C5)N6)nc(OCC56CCCN5CC(F)C6)nc4c3F)c12 (centres undefined) + Nc1ccc(C#CCN(C(=O)Cc2ncc(C(F)(F)F)cc2C(F)(F)F)c2ccc(F)cc2)nn1
> 10 µM: IC50 (second compound 0.0316 µM) | IC50 (second compound 0.1 µM) | IC50 (second compound 0.316 µM) | IC50 (second compound 1 µM) | IC50 (second compound 3.16 µM) | IC50 (second compound 10 µM)
inactive: viability, T/C [1] 104% | viability, T/C [2] 102% | viability, T/C [3] 106% | viability, T/C [4] 97.9% | viability, T/C [5] 102% | viability, T/C [6] 88.7% | viability, T/C [7] 118% | viability, T/C [8] 96.9% | viability, T/C [9] 105% | viability, T/C [10] 98.9% | viability, T/C [11] 96.9% | viability, T/C [12] 89.4% | viability, T/C [13] 109% | viability, T/C [14] 105% | viability, T/C [15] 92.3% | viability, T/C [16] 101% | viability, T/C [17] 99.4% | viability, T/C [18] 78.9% | viability, T/C [19] 107% | viability, T/C [20] 95.5% | viability, T/C [21] 97.2% | viability, T/C [22] 108% | viability, T/C [23] 103% | viability, T/C [24] 79.6% | viability, T/C [25] 94.5% | viability, T/C [26] 94.9% | viability, T/C [27] 105% | viability, T/C [28] 86.7% | viability, T/C [29] 96% | viability, T/C [30] 84.6% | viability, T/C [31] 92% | viability, T/C [32] 104% | viability, T/C [33] 86.9% | viability, T/C [34] 83.6% | viability, T/C [35] 73.7% | viability, T/C [36] 69.3%

CCc1cc2c(N3CCc4c(cc(Cn5ccnc5)cc4-c4cn(C)nc4C(F)(F)F)C3=O)ccnc2c(OC)n1 + Nc1ccc(C#CCN(C(=O)Cc2ncc(C(F)(F)F)cc2C(F)(F)F)c2ccc(F)cc2)nn1
> 10 µM: IC50 (second compound 0.0316 µM) | IC50 (second compound 0.1 µM) | IC50 (second compound 0.316 µM) | IC50 (second compound 1 µM) | IC50 (second compound 3.16 µM) | IC50 (second compound 10 µM)
inactive: viability, T/C [1] 102% | viability, T/C [2] 106% | viability, T/C [3] 94.6% | viability, T/C [4] 95.8% | viability, T/C [5] 105% | viability, T/C [6] 96% | viability, T/C [7] 115% | viability, T/C [8] 112% | viability, T/C [9] 101% | viability, T/C [10] 100% | viability, T/C [11] 105% | viability, T/C [12] 102% | viability, T/C [13] 118% | viability, T/C [14] 115% | viability, T/C [15] 93% | viability, T/C [16] 104% | viability, T/C [17] 103% | viability, T/C [18] 87.6% | viability, T/C [19] 116% | viability, T/C [20] 95.1% | viability, T/C [21] 102% | viability, T/C [22] 104% | viability, T/C [23] 114% | viability, T/C [24] 84.5% | viability, T/C [25] 116% | viability, T/C [26] 104% | viability, T/C [27] 93.6% | viability, T/C [28] 104% | viability, T/C [29] 103% | viability, T/C [30] 90% | viability, T/C [31] 101% | viability, T/C [32] 93.2% | viability, T/C [33] 101% | viability, T/C [34] 110% | viability, T/C [35] 97.7% | viability, T/C [36] 96.7%

— PubChem BioAssay AID1963840 (Molecular Pharmacology Branch, DTP, NCI, 2024)
